Measurements reported in patent publication US9464076B2, “Benzothiophene derivative” (Daiichi Sankyo Company, Limited, priority 2013, dated 2016).
Structures can show the parent of a compound that is named as a salt.

Key:
Male C57BL/6 Cr mice = test: Test on suppression of phencyclidine-induced hyperlocomotion in mice; assay type: in vivo, mouse; conditions: locomotor activity, test compound 10 mg/kg oral, phencyclidine 5 mg/kg s.c. approx. 1 hour later, measured for 1 hour; for inhibition in vivo at 10 mg/kg: Mus musculus, po, 1 h
Description: Male C57BL/6 Cr mice (Japan SLC, Inc.) (8 weeks old) were used in the experiment. A test compound was suspended at 1 mg/mL in a 0.5% hydroxypropylcellulose solution to prepare a suspension for administration. The suspension of the test compound or a solvent (0.5% hydroxypropylcellulose solution) was orally administered at a dose of 10 mL/kg to each mouse. After the administration, the mouse was immediately placed in a locomotor activity measurement apparatus (Muromachi Kikai Co., Ltd., locomotor activity measurement system SUPERMEX). Approximately 1 hour later, phencyclidine (5 mg/10 mL/kg) or a solvent (10 mL/kg saline) was subcutaneously administered to the mouse. The locomotor activity was measured from immediately after the subcutaneous administration to 1 hour later.
Percent inhibition exceeding 100 means that when the activity of the phencyclidine administration control group was defined as 100, the activity of the group given a test compound was lower than that of the solvent administration control group.

PDE10A = PDE10A (Homo sapiens (Human), UniProt Q9Y233); test: Measurement of PDE10A inhibitory activity-2 (PDE10A fraction prepared from MOLT-4 cells); assay type: biochemical; conditions: PDE10A fraction from MOLT-4 cells (peak around 250 mM NaCl)
PDE10A, sequence (Q9Y233 whole entry): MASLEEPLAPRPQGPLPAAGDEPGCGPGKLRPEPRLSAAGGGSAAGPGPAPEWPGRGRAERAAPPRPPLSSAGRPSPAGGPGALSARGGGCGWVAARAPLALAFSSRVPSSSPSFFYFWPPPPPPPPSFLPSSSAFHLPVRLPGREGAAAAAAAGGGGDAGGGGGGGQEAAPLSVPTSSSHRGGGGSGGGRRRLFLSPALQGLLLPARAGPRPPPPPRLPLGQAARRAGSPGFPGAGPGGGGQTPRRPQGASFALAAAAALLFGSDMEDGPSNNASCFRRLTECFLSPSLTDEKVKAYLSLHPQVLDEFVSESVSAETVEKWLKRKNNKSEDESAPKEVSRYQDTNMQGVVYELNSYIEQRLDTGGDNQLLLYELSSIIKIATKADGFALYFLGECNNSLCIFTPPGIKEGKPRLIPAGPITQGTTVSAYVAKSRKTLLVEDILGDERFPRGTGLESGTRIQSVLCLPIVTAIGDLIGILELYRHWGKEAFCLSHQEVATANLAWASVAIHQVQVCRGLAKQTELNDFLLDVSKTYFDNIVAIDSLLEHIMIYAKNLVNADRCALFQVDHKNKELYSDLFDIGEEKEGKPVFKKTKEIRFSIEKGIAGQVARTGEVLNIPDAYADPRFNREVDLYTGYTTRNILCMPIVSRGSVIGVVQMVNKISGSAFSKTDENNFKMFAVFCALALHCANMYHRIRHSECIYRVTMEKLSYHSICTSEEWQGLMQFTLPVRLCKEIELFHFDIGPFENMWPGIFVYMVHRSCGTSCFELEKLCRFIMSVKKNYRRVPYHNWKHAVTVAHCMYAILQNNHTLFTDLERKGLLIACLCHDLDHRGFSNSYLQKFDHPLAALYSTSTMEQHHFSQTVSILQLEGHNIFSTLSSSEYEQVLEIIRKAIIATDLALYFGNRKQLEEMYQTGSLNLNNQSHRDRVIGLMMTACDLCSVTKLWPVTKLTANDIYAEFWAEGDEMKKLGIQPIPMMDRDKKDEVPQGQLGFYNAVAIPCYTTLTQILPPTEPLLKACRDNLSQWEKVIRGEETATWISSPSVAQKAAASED
Description: A human acute lymphoblastic lymphoma T cell line MOLT-4 (which can be purchased under ATCC No. CRL-1582 from ATCC) was cultured in an RPMI1640 medium containing 10% fetal bovine serum to obtain 5×10^8 MOLT-4 cells. The cells were recovered by centrifugation and suspended in 10 ml of buffer solution A (25 mM Tris-HCl, 5 mM 2-mercaptoethanol, 2 mM benzamidine, 2 mM EDTA, and 0.1 mM 4-(2-aminoethyl)benzenesulfonyl hydrochloride, pH 7.5). The cells were homogenized using a Polytron homogenizer and centrifuged (4° C., 25,000 g, 10 minutes). Then, the supernatant was further ultracentrifuged (4° C., 100,000 g, 60 minutes). The obtained supernatant was filtered through a 0.2 μm filter to obtain a soluble fraction.
HiTrap Q HP column (5 ml×2, GE Healthcare Japan Corp.) equilibrated with buffer solution A was charged with the obtained soluble fraction. Phosphodiesterase was eluted with 300 ml of buffer solution A containing a linear gradient solution of 0 to 0.8 M NaCl to recover sixty 5-ml fractions. Each fraction was tested for cAMP-metabolizing phosphodiesterase activity.
On the other hand, total RNA was prepared from Jurkat cells, one type of human T cell, and similarly subjected to RT-PCR. […] Eur J Biochem. 1999, 266 (3), 1118-2 has reported that PDE10A from the rat striatum and testis is eluted as an active peak centered around 250 mM NaCl.
For these reasons, this fraction was used as a solution for the evaluation of PDE10A inhibitory activity. The obtained solution was used to calculate the inhibitory activity (IC50) of a test compound in the same way as in the aforementioned test.

| Structure (SMILES) | IC50 (PDE10A) | inhibition in vivo at 10 mg/kg (Male C57BL/6 Cr mice) | % inhibition (Male C57BL/6 Cr mice) |
| --- | --- | --- | --- |
| COCc1ccc(C(C)=O)c2sc(C(=O)Nc3ccc4c(C(=O)N(C)C)cccc4n3)c(C)c12 [Example 97, 2-(7-Acetyl-4-(methoxymethyl)-3-methylbenzo[b]thiophene-2-carboxamido)-N,N-dimethylquinoline-5-carboxamide] | 0.26 nM | 50% | – |
| COCc1ccc(C(C)=O)c2sc(C(=O)Nc3cc(N4CCN(C)CC4)c4ccccc4n3)c(C)c12 [Example 57, 7-Acetyl-4-(methoxymethyl)-3-methyl-N-(4-(4-methylpiperazin-1-yl)quinolin-2-yl)benzo[b]thiophene-2-carboxamide] | 1.6 nM | 86% | – |
| COCc1ccc(C(C)=O)c2sc(C(=O)Nc3cc(C(C)(C)O)c4ccccc4n3)c(C)c12 [Example 26, 7-Acetyl-N-(4-(2-hydroxypropan-2-yl)quinolin-2-yl)-4-(methoxymethyl)-3-methylbenzo[b]thiophene-2-carboxamide] | 1.8 nM | 84% | – |
| COCc1ccc(C(C)=O)c2sc(C(=O)Nc3cc(CN4CC(O)C4)c4ccccc4n3)c(C)c12 [Example 47, 7-Acetyl-N-(4-((3-hydroxyazetidin-1-yl)methyl)quinolin-2-yl)-4-(methoxymethyl)-3-methylbenzo[b]thiophene-2-carboxamide dihydrochloride] | 0.49 nM | 73% | – |
| COCc1ccc(C(C)=O)c2sc(C(=O)Nc3ccc4c(CN5CC(O)C5)cccc4n3)c(C)c12 [Example 65, 7-Acetyl-N-(5-((3-hydroxyazetidin-1-yl)methyl)quinolin-2-yl)-4-(methoxymethyl)-3-methylbenzo[b]thiophene-2-carboxamide dihydrochloride] | 0.39 nM | 37% | – |
| COCc1ccc(C(C)=O)c2sc(C(=O)Nc3ccc4ccccc4n3)c(C)c12 [Example 49, 7-Acetyl-4-(methoxymethyl)-3-methyl-N-(quinolin-2-yl)benzo[b]thiophene-2-carboxamide] | – | 104% | – |
| COCc1ccc(C(C)=O)c2sc(C(=O)Nc3ccc4c(COC(=O)[C@H](C)N)cccc4n3)c(C)c12 [Example 86, (S)-(2-(7-Acetyl-4-(methoxymethyl)-3-methylbenzo[b]thiophene-2-carboxamido)quinolin-5-yl)methyl-2-aminopropanoate] | 1.1 nM | 88% | – |
| COCc1ccc(C(C)=O)c2sc(C(=O)Nc3cc(CN4CCN(C)CC4)c4ccccc4n3)c(C)c12 [Example 125, 7-Acetyl-4-(methoxymethyl)-3-methyl-N-(4-((4-methylpiperazin-1-yl)methyl)quinolin-2-yl)benzo[b]thiophene-2-carboxamide] | 0.8 nM | 86% | – |
| COCc1ccc(C(C)=O)c2sc(C(=O)Nc3ccc4c(CN5CC(OC)C5)cccc4n3)c(C)c12 [Example 66, 7-Acetyl-N-(5-((3-methoxyazetidin-1-yl)methyl)quinolin-2-yl)-4-(methoxymethyl)-3-methylbenzo[b]thiophene-2-carboxamide] | 1.2 nM | 91% | – |
| COCc1ccc(C(C)=O)c2sc(C(=O)Nc3ccc4c(C(=O)N5CCN(C)CC5)cccc4n3)c(C)c12 [Example 96, 7-Acetyl-4-(methoxymethyl)-3-methyl-N-(5-((4-methylpiperazin-1-yl)carbonyl)quinolin-2-yl)benzo[b]thiophene-2-carboxamide] | – | 65% | – |
| COCc1ccc(C(C)=O)c2sc(C(=O)Nc3cc(N(C)C)c4ccccc4n3)c(C)c12 [Example 55, 7-Acetyl-N-(4-(dimethylamino)quinolin-2-yl)-4-(methoxymethyl)-3-methylbenzo[b]thiophene-2-carboxamide] | – | 127% | – |
| COCc1ccc(C(C)=O)c2sc(C(=O)Nc3ccc4c(CO)cccc4n3)c(C)c12.Cl [Example 77, 7-Acetyl-N-(5-(hydroxymethyl)quinolin-2-yl)-4-(methoxymethyl)-3-methylbenzo[b]thiophene-2-carboxamide hydrochloride] | – | – | 96% |
| COCc1ccc(C(C)=O)c2sc(C(=O)Nc3ccc4c(CN5CC[C@@H](F)C5)cccc4n3)c(C)c12 [Example 60, (R)-7-Acetyl-N-(5-((3-fluoropyrrolidin-1-yl)methyl)quinolin-2-yl)-4-(methoxymethyl)-3-methylbenzo[b]thiophene-2-carboxamide hydrochloride] | – | 107% | – |
| COCc1ccc(C(C)=O)c2sc(C(=O)Nc3ccc4c(C(C)(C)O)cccc4n3)c(C)c12 [Example 74, 7-Acetyl-N-(5-(2-hydroxypropan-2-yl)quinolin-2-yl)-4-(methoxymethyl)-3-methylbenzo[b]thiophene-2-carboxamide] | 3 nM | – | – |
| [2H]C([2H])([2H])OCc1ccc(C(C)=O)c2sc(C(=O)Nc3ccc4c(CO)cccc4n3)c(C)c12 [Example 120, 7-Acetyl-N-(5-(hydroxymethyl)quinolin-2-yl)-4-((^2H3)methoxymethyl)-3-methylbenzo[b]thiophene-2-carboxamide] | – | 52% | – |

More lines, in order of falling IC50 (PDE10A), values ahead:

| IC50 (PDE10A) | Structure (SMILES) | inhibition in vivo at 10 mg/kg (Male C57BL/6 Cr mice) | % inhibition (Male C57BL/6 Cr mice) |
| --- | --- | --- | --- |
| 4 nM | Cc1c(C(=O)Nc2cc(C(C)(C)O)c3ccccc3n2)sc2c(C(=O)C3CCCC3)cccc12 [Example 25, 7-(Cyclopentylcarbonyl)-N-(4-(2-hydroxypropan-2-yl)quinolin-2-yl)-3-methylbenzo[b]thiophene-2-carboxamide] | – | – |
| 2.6 nM | CCCC(=O)c1cccc2c(C)c(C(=O)Nc3cc(C(C)(C)O)c4ccccc4n3)sc12 [Example 17, 7-Butyryl-N-(4-(2-hydroxypropan-2-yl)quinolin-2-yl)-3-methylbenzo[b]thiophene-2-carboxamide] | – | – |
| 2.3 nM | CC(=O)c1ccc(C(C)=O)c2c(C)c(C(=O)Nc3cc(CN(C)C(C)=O)c4ccccc4n3)sc12 [Example 15, 4,7-Diacetyl-3-methyl-N-(4-((N-methylacetamido)methyl)quinolin-2-yl)benzo[b]thiophene-2-carboxamide] | – | – |
| 2.1 nM | COCc1ccc(C(C)=O)c2sc(C(=O)Nc3cc(CN4CCOCC4)c4ccccc4n3)c(C)c12 [Example 44, 7-Acetyl-4-(methoxymethyl)-3-methyl-N-(4-(morpholinomethyl)quinolin-2-yl)benzo[b]thiophene-2-carboxamide] | 104% | – |
| 1.1 nM | COCc1ccc(C(C)=O)c2sc(C(=O)Nc3ccc4c(COC(=O)CN)cccc4n3)c(C)c12 [Example 85, (2-(7-Acetyl-4-(methoxymethyl)-3-methylbenzo[b]thiophene-2-carboxamido)quinolin-5-yl)methyl-2-aminoacetate] | 85% | – |
| 0.57 nM | [2H]C([2H])([2H])OCc1ccc(C(C)=O)c2sc(C(=O)Nc3ccc4c(C(=O)N5CC(OC)C5)cccc4n3)c(C)c12 [Example 121, 7-Acetyl-N-(5-((3-methoxyazetidin-1-yl)carbonyl)quinolin-2-yl)-4-((^2H3)methoxymethyl)-3-methylbenzo[b]thiophene-2-carboxamide] | 59% | – |
| 0.37 nM | COCc1ccc(C(C)=O)c2sc(C(=O)Nc3ccc4c(COC(=O)CCC(=O)O)cccc4n3)c(C)c12 [Example 89, 4-((2-(7-Acetyl-4-(methoxymethyl)-3-methylbenzo[b]thiophene-2-carboxamido)quinolin-5-yl)methoxy)-4-oxobutanoic acid] | – | – |
